Common to all, as to assay type: biochemical
One assay addresses T1, E. coli CsgA (Escherichia coli, UniProt P28307).
T1 construct: 6xHis (C); made in house; host or cells: E. coli NEB 3016 slyD::kan
The experiment in a line: Thioflavin T cell-free assay of CsgA aggregation.

In assay [1] the target is T2, α-synuclein seeded by E. coli CsgA (Homo sapiens, UniProt P37840).
T2 construct: the full-length gene for untagged human α-synuclein was inserted; made in house; host or cells: α-synuclein: E. coli BL21 (DE3); CsgA: E. coli NEB 3016 slyD::kan
The experiment in a line: Thioflavin T cell-free assay of CsgA-seeded α-synuclein aggregation.

A further assay addresses T3, human α-synuclein (Homo sapiens, UniProt P37840).
T3 construct: the full-length gene for untagged human α-synuclein was inserted; made in house; host or cells: E. coli BL21 (DE3)
In words: Thioflavin T cell-free assay of α-synuclein aggregation. The settings on record: α-synuclein 50 μM, compounds at 20-50 μM, data from 36 hours; for Inhibition of Aggregation, αSyn: ThT fluorescence, negative = potentiation.

Setting [2] is: read-out: Inhibition of Aggregation, CsgA.
The mark [3] stands for this setting: read-out: Inhibition of Aggregation, CsgA (compound activity range).
The mark [4] stands for this setting: read-out: Inhibition of Aggregation, CsgA-seeded αSyn.
Setting [5] is: read-out: Inhibition of Aggregation, CsgA-seeded αSyn (compound activity range).

Where two headings read alike, the source gives them in different places.

T1 sequence (P28307 23-151): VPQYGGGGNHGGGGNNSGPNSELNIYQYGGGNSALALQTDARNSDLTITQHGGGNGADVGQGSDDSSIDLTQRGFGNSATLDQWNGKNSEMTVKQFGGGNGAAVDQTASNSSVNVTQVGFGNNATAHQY

With `COc1cc(NC(=O)c2c[nH]c3cc(OC)c(OC)c(OC)c3c2=O)cc(OC)c1OC` [Compound 19, 5,6,7-trimethoxy-4-oxo-N-(3,4,5-trimethoxyphenyl)-1,4-dihydroquinoline-3-carboxamide], the inhibition at 20 µM is 18% at E. coli CsgA (setting [2]) and 10 to 30% on E. coli CsgA (setting [3]). The inhibition at 50 µM in assay [1] (setting [4]) is 14%; in assay [1] (setting [5]) it was 10 to 30%. Also, on human α-synuclein, the “Inhibition of Aggregation, αSyn” value is 29%. The “Inhibition of Aggregation, αSyn (compound activity range)” value (“Inhibition … (compound activity range)” below) at human α-synuclein is recorded as “(+) ((+) is between 10% to 30% inhibition)”.
On to `COc1cc2[nH]cc(C(=O)Nc3cccc(O)c3)c(=O)c2c(OC)c1OC` [Compound 28, N-(3-hydroxyphenyl)-5,6,7-trimethoxy-4-oxo-1,4-dihydroquinoline-3-carboxamide], for which the inhibition at 20 µM at E. coli CsgA (setting [2]) is -6%; on E. coli CsgA (setting [3]) it was -10 to 10%. Also, the inhibition at 50 µM in assay [1] (setting [4]) was less than -50%; in assay [1] (setting [5]), less than -10%. Further, the “Inhibition of Aggregation, αSyn” value on human α-synuclein is given as 20%. In addition, on human α-synuclein, the “Inhibition … (compound activity range)” value is listed as “(+) ((+) is between 10% to 30% inhibition)”.
On to `COc1cc(OC)c2c(=O)c(C(=O)Oc3cc(OC)c(OC)c(OC)c3)c[nH]c2c1` [Compound 24, 3,4,5-trimethoxyphenyl 5,7-dimethoxy-4-oxo-1,4-dihydroquinoline-3-carboxylate], for which the inhibition at 20 µM at E. coli CsgA (setting [2]) was -1%; on E. coli CsgA (setting [3]), -10 to 10%. Besides, the inhibition at 50 µM was -27% in assay [1] (setting [4]) and less than -10% in assay [1] (setting [5]).
Regarding `COc1cc(OC(=O)c2c[nH]c3cc(OC)c(OC)c(OC)c3c2=O)cc(OC)c1OC` [Compound 23, 3,4,5-trimethoxyphenyl 5,6,7-trimethoxy-4-oxo-1,4-dihydroquinoline-3-carboxylate], the results for the inhibition at 20 µM on E. coli CsgA (setting [2]) and on E. coli CsgA (setting [3]) were -4% and -10 to 10%, respectively. Also, the inhibition at 50 µM is -22% in assay [1] (setting [4]) and less than -10% in assay [1] (setting [5]).
`O=C(Nc1sc2c(c1C(=O)Nc1cc(O)cc(O)c1)CCCC2)c1cc(O)c(O)c(O)c1` [Compound 6, N-(3,5-dihydroxyphenyl)-2-(3,4,5-trihydroxybenzamido)-4,5,6,7-tetrahydrobenzo[b]thiophene-3-carboxamide]: the inhibition at 20 µM at E. coli CsgA (setting [2]) was 40%; on E. coli CsgA (setting [3]), 30 to 60%. Moreover, the inhibition at 50 µM in assay [1] (setting [4]) was more than 90%; in assay [1] (setting [5]), more than 60%. The “Inhibition of Aggregation, αSyn” value on human α-synuclein was found to be 36%. In addition, at human α-synuclein, the “Inhibition … (compound activity range)” value was “(++) ((++) is between 30% to 60% inhibition)”.
Regarding `CN(C(=O)c1c[nH]c2cc(O)cc(O)c2c1=O)c1cc(O)c(O)c(O)c1` [Compound 42, 5,7-dihydroxy-N-methyl-4-oxo-N-(3,4,5-trihydroxyphenyl)-1,4-dihydroquinoline-3-carboxamide], the inhibition at 20 µM at E. coli CsgA (setting [2]) is 114%; on E. coli CsgA (setting [3]) it was more than 60%. Also, the inhibition at 50 µM in assay [1] (setting [4]) is more than 90%; in assay [1] (setting [5]) it was more than 60%. For the same compound, the “Inhibition of Aggregation, αSyn” value on human α-synuclein worked out at 98%. Further, on human α-synuclein, the “Inhibition … (compound activity range)” value is recorded as “(+++) ((+++) is greater than 60% inhibition)”.
As for `COc1cc(OC)c2c(=O)c(C(=O)Nc3cccc(O)c3)c[nH]c2c1` [Compound 26, N-(3-hydroxyphenyl)-5,7-dimethoxy-4-oxo-1,4-dihydroquinoline-3-carboxamide], the figures for the inhibition at 20 µM at E. coli CsgA (setting [2]) and at E. coli CsgA (setting [3]) were 8% and -10 to 10%, respectively. In addition, the inhibition at 50 µM in assay [1] (setting [4]) is less than -50%; in assay [1] (setting [5]), less than -10%. Also, the “Inhibition of Aggregation, αSyn” value at human α-synuclein is 24%. Besides, at human α-synuclein, the “Inhibition … (compound activity range)” value is reported as “(+) ((+) is between 10% to 30% inhibition)”.
Consider `O=C(Nc1ccccc1)c1c[nH]c2cc(O)cc(O)c2c1=O` [Compound 27, 5,7-dihydroxy-4-oxo-N-phenyl-1,4-dihydroquinoline-3-carboxamide], for which the figures for the inhibition at 20 µM on E. coli CsgA (setting [2]) and on E. coli CsgA (setting [3]) were 44% and 30 to 60%, respectively. Besides, the results for the inhibition at 50 µM in assay [1] (setting [4]) and in assay [1] (setting [5]) were 79% and more than 60%, respectively. Besides, the “Inhibition of Aggregation, αSyn” value at human α-synuclein came out at 49%. Further, the “Inhibition … (compound activity range)” value on human α-synuclein is “(++) ((++) is between 30% to 60% inhibition)”.
As for `O=C(Nc1cccc(O)c1)c1c[nH]c2cc(O)c(O)c(O)c2c1=O` [Compound 32, 5,6,7-trihydroxy-N-(3-hydroxyphenyl)-4-oxo-1,4-dihydroquinoline-3-carboxamide], the inhibition at 20 µM on E. coli CsgA (setting [2]) is 53%; on E. coli CsgA (setting [3]), 30 to 60%. Further, the values for the inhibition at 50 µM in assay [1] (setting [4]) and in assay [1] (setting [5]) were more than 90% and more than 60%, respectively. The “Inhibition of Aggregation, αSyn” value at human α-synuclein came out at 48%. On human α-synuclein, the “Inhibition … (compound activity range)” value is reported as “(++) ((++) is between 30% to 60% inhibition)”.
As to `O=C(Nc1sc2c(c1C(=O)Nc1cc(O)c(O)c(O)c1)CCCC2)c1cc(O)c(O)c(O)c1` [Compound 2, 2-(3,4,5-trihydroxybenzamido)-N-(3,4,5-trihydroxyphenyl)-4,5,6,7-tetrahydrobenzo[b]thiophene-3-carboxamide], the inhibition at 20 µM at E. coli CsgA (setting [2]) is 45%; on E. coli CsgA (setting [3]) it was 30 to 60%. The inhibition at 50 µM in assay [1] (setting [4]) was 63%; in assay [1] (setting [5]) it was more than 60%. For the same compound, at human α-synuclein, the “Inhibition of Aggregation, αSyn” value is 93%. The “Inhibition … (compound activity range)” value on human α-synuclein is reported as “(+++) ((+++) is greater than 60% inhibition)”.
As to `O=C(Nc1ccccc1)c1c[nH]c2cc(O)c(O)c(O)c2c1=O` [Compound 33, 5,6,7-trihydroxy-4-oxo-N-phenyl-1,4-dihydroquinoline-3-carboxamide], the inhibition at 20 µM at E. coli CsgA (setting [2]) is 59%; at E. coli CsgA (setting [3]), 30 to 60%. Further, the “Inhibition of Aggregation, αSyn” value at human α-synuclein is recorded as 92%. Further, the “Inhibition … (compound activity range)” value at human α-synuclein is on record as “(+++) ((+++) is greater than 60% inhibition)”.
Turning to `O=C(Nc1cc(O)c(O)c(O)c1)c1c[nH]c2cc(O)c(O)c(O)c2c1=O` [Compound 20, 5,6,7-trihydroxy-4-oxo-N-(3,4,5-trihydroxyphenyl)-1,4-dihydroquinoline-3-carboxamide], the inhibition at 20 µM was 61% at E. coli CsgA (setting [2]) and more than 60% on E. coli CsgA (setting [3]). Besides, the figures for the inhibition at 50 µM in assay [1] (setting [4]) and in assay [1] (setting [5]) were 11% and 10 to 30%, respectively.
`COc1cc(NC(=O)c2c(N)sc3c2CCCC3)cc(OC)c1OC` [Compound 14, 2-amino-N-(3,4,5-trimethoxyphenyl)-4,5,6,7-tetrahydrobenzo[b]thiophene-3-carboxamide]: the inhibition at 50 µM in assay [1] (setting [4]) was found to be 74%. For the same compound, in assay [1] (setting [5]), the inhibition at 50 µM is more than 60%. Besides, on human α-synuclein, the “Inhibition of Aggregation, αSyn” value is 3% and the “Inhibition … (compound activity range)” value was “(−) ((−) is between −10% to 10% inhibition)”.
For the compound `O=C(Nc1ccccc1O)c1c[nH]c2cc(O)c(O)c(O)c2c1=O` [Compound 43, 5,6,7-trihydroxy-N-(2-hydroxyphenyl)-4-oxo-1,4-dihydroquinoline-3-carboxamide], the inhibition at 20 µM on E. coli CsgA (setting [2]) stood at 90%. Further, the inhibition at 20 µM at E. coli CsgA (setting [3]) is more than 60%. On human α-synuclein, the “Inhibition of Aggregation, αSyn” value stood at 63% and the “Inhibition … (compound activity range)” value is “(++) ((++) is between 30% to 60% inhibition)”.
As to `O=C(Nc1cccc(O)c1)c1c[nH]c2cc(O)cc(O)c2c1=O` [Compound 48, 5,7-dihydroxy-N-(3-hydroxyphenyl)-4-oxo-1,4-dihydroquinoline-3-carboxamide], the inhibition at 20 µM was -2% on E. coli CsgA (setting [2]) and -10 to 10% on E. coli CsgA (setting [3]). The values for the inhibition at 50 µM in assay [1] (setting [4]) and in assay [1] (setting [5]) were more than 90% and more than 60%, respectively. For the same compound, the “Inhibition of Aggregation, αSyn” value at human α-synuclein amounted to 37%. Also, the “Inhibition … (compound activity range)” value on human α-synuclein is reported as “(++) ((++) is between 30% to 60% inhibition)”.
In the case of `O=C(Nc1cc(O)c(O)c(O)c1)c1c(-c2cc(O)c(O)c(O)c2)[nH]c2cc(O)c(O)c(O)c2c1=O` [Compound 44, 5,6,7-trihydroxy-4-oxo-N,2-bis(3,4,5-trihydroxyphenyl)-1,4-dihydroquinoline-3-carboxamide], the inhibition at 20 µM is 64% at E. coli CsgA (setting [2]) and more than 60% at E. coli CsgA (setting [3]). Also, the values for the inhibition at 50 µM in assay [1] (setting [4]) and in assay [1] (setting [5]) were more than 90% and more than 60%, respectively. The “Inhibition of Aggregation, αSyn” value on human α-synuclein amounted to 98%. Also, the “Inhibition … (compound activity range)” value at human α-synuclein is listed as “(+++) ((+++) is greater than 60% inhibition)”.
With `COc1cc(NC(=O)c2c(NC(=O)c3cc(OC)c(OC)c(OC)c3)sc3c2CCCC3)cc(OC)c1` [Compound 5, N-(3,5-dimethoxyphenyl)-2-(3,4,5-trimethoxybenzamido)-4,5,6,7-tetrahydrobenzo[b]thiophene-3-carboxamide], the inhibition at 20 µM on E. coli CsgA (setting [2]) is -4%. Further, the inhibition at 20 µM at E. coli CsgA (setting [3]) is -10 to 10%. Also, on human α-synuclein, the “Inhibition of Aggregation, αSyn” value is given as 22% and the “Inhibition … (compound activity range)” value is on record as “(+) ((+) is between 10% to 30% inhibition)”.
On to `COc1cc(NC(=O)c2c(-c3cc(OC)c(OC)c(OC)c3)[nH]c3cc(OC)c(OC)c(OC)c3c2=O)cc(OC)c1OC` [Compound 40, 5,6,7-trimethoxy-4-oxo-N,2-bis(3,4,5-trimethoxyphenyl)-1,4-dihydroquinoline-3-carboxamide], for which, on E. coli CsgA (setting [2]), the inhibition at 20 µM was determined as 15%. Further, the inhibition at 20 µM at E. coli CsgA (setting [3]) is 10 to 30%. At human α-synuclein, the “Inhibition of Aggregation, αSyn” value is recorded as −12% and the “Inhibition … (compound activity range)” value was “(−−) ((−−) is less than −10% inhibition)”.

Usually inhibition stands for the drop in the measured response relative to a control, in per cent.

The values above are taken from patent US11505528B2, “Inhibitors of microbially induced amyloid” (Axial Therapeutics, Inc., priority 2017, dated 2022).
